Measured values: the supplement of paper PMC10307832

Columns and labels:
Assay in all cases: relative viability (nuclei count vs DMSO), 5 days (fraction); higher = more cells survive
Selisistat + Luminespib = compound: C1CC(C2=C(C1)C3=C(N2)C=CC(=C3)Cl)C(=O)N [Selisistat] + CCNC(=O)c1noc(-c2cc(C(C)C)c(O)cc2O)c1-c1ccc(CN2CCOCC2)cc1 [Luminespib] (partner 0.01 µM)
Summary of the method: (§1)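 Dosing by pin tool came one day after lung cancer cell lines were seeded in 1536-well plates, using either one drug or a fixed anchor-drug dose plus five library-drug doses (not always all listed) in √10 steps. After 5 days, nuclei were counted on 4× images. Relative viability is treated-well nuclei count divided by vehicle-well nuclei count, and values are medians of duplicate plates.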

Serdemetan + Trametinib = compound: c1ccc2c(CCNc3ccc(Nc4ccncc4)cc3)c[nH]c2c1 [Serdemetan] + CC(=O)Nc1cccc(-n2c(=O)n(C3CC3)c(=O)c3c(Nc4ccc(I)cc4F)n(C)c(=O)c(C)c32)c1 [Trametinib] (partner 0.02 µM)
Summary of the method: as §1

Serdemetan + Decitabine = compound: c1ccc2c(CCNc3ccc(Nc4ccncc4)cc3)c[nH]c2c1 [Serdemetan] + Nc1ncn([C@H]2C[C@H](O)[C@@H](CO)O2)c(=O)n1 [Decitabine] (partner 2 µM)
Summary of the method: as §1

Serdemetan + Linsitinib = compound: c1ccc2c(CCNc3ccc(Nc4ccncc4)cc3)c[nH]c2c1 [Serdemetan] + C[C@]1(O)C[C@@H](c2nc(-c3ccc4ccc(-c5ccccc5)nc4c3)c3c(N)nccn32)C1 [Linsitinib] (partner 1 µM)
Summary of the method: as §1

Row | Cell Line | relative viability (Selisistat + Luminespib; first compound 0.4 µM) | relative viability (Selisistat + Luminespib; first compound 1.265 µM) | relative viability (Selisistat + Luminespib; first compound 4 µM) | relative viability (Selisistat + Luminespib; first compound 12.65 µM) | relative viability (Selisistat + Luminespib; first compound 40 µM) | relative viability (Serdemetan + Trametinib; first compound 0.04 µM) | relative viability (Serdemetan + Trametinib; first compound 0.1265 µM) | relative viability (Serdemetan + Trametinib; first compound 0.4 µM) | relative viability (Serdemetan + Trametinib; first compound 1.265 µM) | relative viability (Serdemetan + Trametinib; first compound 4 µM) | relative viability (Serdemetan + Decitabine; first compound 0.04 µM) | relative viability (Serdemetan + Decitabine; first compound 0.1265 µM) | relative viability (Serdemetan + Decitabine; first compound 0.4 µM) | relative viability (Serdemetan + Decitabine; first compound 1.265 µM) | relative viability (Serdemetan + Decitabine; first compound 4 µM) | relative viability (Serdemetan + Linsitinib; first compound 0.04 µM) | relative viability (Serdemetan + Linsitinib; first compound 0.1265 µM) | relative viability (Serdemetan + Linsitinib; first compound 0.4 µM) | relative viability (Serdemetan + Linsitinib; first compound 1.265 µM) | relative viability (Serdemetan + Linsitinib; first compound 4 µM)
1 | 201T | 1.14 | 1.12 | 0.983 | 1.04 | 1.01 | 0.769 | 0.687 | 0.736 | 0.653 | 0.631 | 0.863 | 0.801 | 0.783 | 0.489 | 0.593 | 1.04 | 1.03 | 1.01 | 1.02 | 0.781
2 | A549 |  |  |  |  |  |  |  |  |  |  | 0.263 | 0.245 | 0.261 | 0.291 | 0.198 | 0.595 | 0.578 | 0.631 | 0.42 | 0.179
3 | A-427 | 0.882 | 0.729 | 0.881 | 0.977 | 0.949 | 0.699 | 0.732 | 0.877 | 0.698 | 0.506 | 0.555 | 0.56 | 0.606 | 0.513 | 0.45 | 1.06 | 1.04 | 1.07 | 0.883 | 0.576
4 | ABC-1 | 0.477 | 0.483 |  |  | 0.627 |  |  |  |  |  | 0.896 | 1.01 | 1.25 | 0.921 | 0.844 | 0.85 | 0.87 | 0.738 | 0.6 | 0.489
5 | BEN | 0.429 | 0.242 | 0.33 | 0.207 | 0.383 | 0.944 | 0.853 | 1.06 | 1.03 | 0.794 | 0.649 | 0.612 | 0.726 | 0.631 | 0.647 | 0.857 | 0.929 | 0.956 | 0.875 | 0.679
6 | CAL-12T | 0.546 | 0.326 | 0.275 | 0.784 | 0.401 | 0.447 | 0.335 | 0.334 | 0.365 | 0.308 |  |  |  |  |  | 0.77 | 0.793 | 0.698 | 0.864 | 0.651
7 | COR-L23 | 0.709 | 0.715 | 0.641 | 0.655 | 0.61 | 0.616 | 0.606 | 0.617 | 0.502 | 0.449 | 0.4 | 0.443 | 0.435 | 0.39 | 0.353 | 0.906 | 0.752 | 0.891 | 0.688 | 0.788
8 | COR-L 105 | 0.464 | 0.608 |  | 0.909 | 0.775 | 0.435 | 0.482 | 0.366 | 0.487 | 0.491 | 0.65 | 0.646 | 0.574 | 0.52 | 0.626 | 0.86 | 1.14 | 0.847 | 1.04 | 0.845
9 | Calu-6 |  |  |  |  |  |  |  |  |  |  |  |  |  |  |  | 0.895 | 0.962 | 0.958 | 0.913 | 0.698
10 | ChaGo-K-1 | 0.586 | 0.581 | 0.648 | 0.526 | 0.61 | 0.875 | 0.805 | 0.602 | 0.266 | 0.293 | 0.488 | 0.42 | 0.421 | 0.266 | 0.303 |  |  |  |  | 
11 | EBC-1 |  |  |  |  |  |  |  |  |  |  |  |  |  |  |  | 0.807 | 0.904 | 0.952 | 0.794 | 0.634
12 | EKVX | 0.844 | 0.894 | 0.814 | 0.934 | 0.877 | 0.45 | 0.396 |  |  | 0.268 | 0.322 | 0.33 |  |  | 0.291 | 0.997 | 0.971 | 0.861 | 0.968 | 0.639
13 | EMC-BAC-2 | 1.12 | 1.07 | 1.14 | 1.17 | 1.08 | 0.833 | 0.889 | 0.886 | 0.754 | 0.719 | 0.882 | 0.912 | 0.972 | 0.879 | 0.823 | 0.802 | 0.753 | 0.787 | 0.755 | 0.613
14 | EPLC-272H | 0.213 | 0.409 |  | 0.32 | 0.197 | 0.32 | 0.281 | 0.28 | 0.292 | 0.25 | 0.384 | 0.362 | 0.341 | 0.338 | 0.256 | 1.29 | 1.18 | 1.07 | 1 | 0.703
15 | H3255 | 0.807 | 0.79 | 0.948 | 0.773 | 0.819 | 0.618 | 0.561 |  | 0.464 | 0.516 | 0.546 | 0.588 |  | 0.569 | 0.42 | 0.938 | 0.832 | 0.931 | 1.03 | 0.814
16 | HARA | 0.909 | 1.02 | 0.846 | 0.584 | 1.04 | 0.529 | 0.658 | 0.649 | 0.42 | 0.641 | 0.542 | 0.47 | 0.409 | 0.344 | 0.379 | 0.948 | 0.865 | 0.854 |  | 0.441
